The conditions of data set [1]: solid form, known from prior patents (EP 298 650 B1, CA 1,314,876), cited from earlier work.
A short description of data set [2]: Hygroscopicity of azithromycin forms. The data set is classed as physicochemical. As to conditions: solid form.
Data set [3] is described as follows: Extended vacuum drying, water (Karl-Fischer) and isopropanol (gas chromatography) content. Type of data set: physicochemical. The settings on record: vacuum 1-10 mm Hg, 50° C. to 60° C., beyond 12-24 hours. The protocol:
According to this invention, azithromycin monohydrate isopropanol clathrate contains three molecules of isopropanol for every ten molecules of azithromycin monohydrate. The process comprises the dissolution of azithromycin in isopropanol to which water is added slowly while stirring, resulting in the precipitation of crystalline azithromycin monohydrate isopropanol clathrate. The volume of solvent used is such as to be sufficient to dissolve azithromycin. The addition of the water is carried out between 0° and 30° C. and preferably between 15° C. to 25° C. The product is filtered and washed with a mixture of water-isopropanol and dried under vacuum (1-10 mm Hg) at 50° C. to 60° C. for 12-24 hours to obtain azithromycin monohydrate isopropanol clathrate in high yields. […] The water content of azithromycin monohydrate isopropanol clathrate was measured by the Karl-Fischer method and its isopropanol content was determined by gas chromatography.

The text below walks through data of patent publication USRE39087E1, “Azithromycin monohydrate isopropanol clathrate and methods for the manufacture thereof” (Apotex, Inc., priority 1998, dated 2006).

Read-outs that look alike come from different tables or passages of the source.

With `CC[C@H]1OC(=O)[C@H](C)[C@@H](O[C@H]2C[C@@](C)(OC)[C@@H](O)[C@H](C)O2)[C@H](C)[C@@H](O[C@@H]2O[C@H](C)C[C@H](N(C)C)[C@H]2O)[C@](C)(O)C[C@@H](C)CN(C)[C@H](C)[C@@H](O)[C@]1(C)O` [Azithromycin monohydrate, azithromycin monohydrate], the hygroscopicity result in data set [1] (monohydrate) was “hygroscopic”.

Take `CC[C@H]1OC(=O)[C@H](C)[C@@H](O[C@H]2C[C@@](C)(OC)[C@@H](O)[C@H](C)O2)[C@H](C)[C@@H](O[C@@H]2O[C@H](C)C[C@H](N(C)C)[C@H]2O)[C@](C)(O)C[C@@H](C)CN(C)[C@H](C)[C@@H](O)[C@]1(C)O` [azithromycin dihydrate]: the hygroscopicity result in data set [1] (dihydrate) is “not hygroscopic”.

With “azithromycin monohydrate isopropanol clathrate”, the hygroscopicity result in data set [2] was “not hygroscopic”. Further, the “effect of extension of vacuum drying on water and isopropanol content” value in data set [3] is listed as “does not reduce either the water content or the isopropanol content”.
